# Assay results as given in patent US20260048046A1, “METHOD FOR IMPROVING GROWTH PERFORMANCE IN FEEDLOT CATTLE” (Elanco US Inc., priority 2022, published 2026).
# Entries after “also recorded” stand apart in the source; their conditions may differ.
# Test system: beef cattle
# Test: 91-d study: carcass characteristics
# Assay type: in vivo
# Conditions: for Adjusted fat thickness / Calculated yield grade / HGW / IM area / KPH / Dressing percentage / Lean maturity / Overall maturity / Skeletal maturity / Marbling score: 91-d treatment, LS mean; for Dressing percentage: unshrunk BW basis; for Lean maturity / Overall maturity / Skeletal maturity: 100 A, 200 B maturity; for Marbling score: 500 Small, 600 Modest
# Description: A randomized complete block design was used to evaluate the effect of lubabegron (LUB) on performance over a 91-d period using 336 beef cattle (BW=453±34.5 kg) housed in cattle pen enclosures (CPE). Four LUB treatments were included in the study based on dose: 0.0 (control or CON), 1.38, 5.5, and 22.0 (mg·kg^−1 of DM). Because there was a limited number of CPE (n=8), three sequential cycles (blocks) were required to generate 6 replicates of each dose×sex combination. As such, 112 cattle (56 steers and 56 heifers) were housed concurrently within each cycle across the eight CPE (14 cattle/CPE), with each dose×sex combination being represented by a single CPE/cycle. To assure different frame sizes of cattle were represented, cattle in cycles one and three were large-frame Continental crossbreds, whereas cattle in cycle 2 were medium-frame British crossbreds.
# On day 91, cattle were loaded onto double-decked aluminum semi-trailers and transported ˜1,000 km to a commercial abattoir where they were slaughtered following an ˜5 to 9 h lairage. Carcass identification was maintained throughout the slaughter process by recording ear tag sequence at stunning and then cross-matching to sequentially numbered carcass tags. Hot carcass weights and KPH were measured following industry standard processing, and yield grade (YG) and quality grade data were collected from left carcass sides by trained university personnel after 22 h in a spray-chill system.
# Data were analyzed using version 9.2 of SAS (SAS Institute, Cary, NC), and the individual CPE were considered the experimental unit. Continuous variables were analyzed using PROC MIXED, with treatment (LUB dose), sex, and the dose×sex interaction as fixed effects, and cycle as the random effect included in the model. If the dose×sex interaction was not significant (P>0.05), the main effect of dose pooled across sexes was evaluated. When the main effect of dose was significant (P≤0.05) or tended to be significant (0.05≤P≤0.10), planned contrasts comparing each LUB dose to CON were performed in a pairwise fashion. If the dose×sex was significant (P≤0.05) planned contrasts comparing each LUB dose to CON within sex were performed in a pairwise fashion. Treatment means were estimated using the LSMEANS statement.
# Discrete variables were analyzed with a generalized linear mixed model using a binomial distribution and logit link function in PROC GLIMMIX. The classification of fixed and random effects and the handling of interactions and pairwise comparisons were performed in a similar manner as the continuous variables. Statistical analyses for YG were performed on both continuous and discrete (YG 1=1.00 to 1.99, YG 2=2.00 to 2.99, and so on) forms of data, and quality grades were further sorted into the five categories routinely used for determining premium or discount adjustments when cattle are marketed on a grid-based system (U.S. Prime, upper 2/3 Choice, low Choice, Select, and Standard). […] Fisher's exact test was performed using PROC FREQ to evaluate the frequency distribution of the CON cattle compared with LUB. Statistical significance for the main effects of dose was determined by P≤0.05 and tendencies were declared when 0.05≤P≤0.10.
compound,measurement,setting,value
"CC(C)(Cc1ccc(Oc2ncccc2C#N)cc1)NC[C@H](O)COc1ccccc1-c1cccs1 [LUB, 2-{4-[2-({(2S)-2-Hydroxy-3-[2-(2-thienyl)phenoxy]propyl}amino)-2-methylpropyl]phenoxy}nicotinonitrile]","Effect of LUB treatment on skeletal, lean, or overall maturity","91 d, P≥0.262",no effect
same,Probability of cattle producing a YG3 carcass,"91 d, YG as discrete variable, CON vs LUB-fed",greater (P<0.019) for CON-than LUB-fed cattle
same,"Probability of cattle producing YG1, YG2, or YG4 carcasses","91 d, across treatments, P≥0.233",similar
same,Effect of LUB treatment on calculated YG,"91 d, all LUB doses vs CON, P=0.155",no effect
same,Effect of LUB treatment on adjusted fat thickness,"91 d, all LUB doses vs CON, P=0.579",not affected; also recorded: no change
same,Dark cutter incidence,"91 d, only a single carcass over the entire study",not influenced by treatment
same,Increased HCW,"LUB 1.38 mg·kg^−1 DM (first of the respective treatments), 91 d",15 kg animal-1
same,Adjusted fat thickness,LUB 1.38 mg·kg^−1 DM,1.15 cm
same,Calculated yield grade,LUB 1.38 mg·kg^−1 DM,2.37
same,HGW,LUB 1.38 mg·kg^−1 DM,364 kg
same,IM area,LUB 1.38 mg·kg^−1 DM,94.8 cm^2
same,KPH,LUB 1.38 mg·kg^−1 DM,1.99%
same,Dressing percentage,LUB 1.38 mg·kg^−1 DM,62.4%
same,Lean maturity,LUB 1.38 mg·kg^−1 DM,163
same,Overall maturity,LUB 1.38 mg·kg^−1 DM,168
same,Skeletal maturity,LUB 1.38 mg·kg^−1 DM,170
same,Marbling score,LUB 1.38 mg·kg^−1 DM,573
same,Increased HCW,"LUB 5.5 mg·kg^−1 DM (second of the respective treatments), 91 d",16 kg animal-1
same,Adjusted fat thickness,LUB 5.5 mg·kg^−1 DM,1.24 cm
same,Calculated yield grade,LUB 5.5 mg·kg^−1 DM,2.41
same,HGW,LUB 5.5 mg·kg^−1 DM,365 kg
same,KPH,LUB 5.5 mg·kg^−1 DM,1.96%
same,Dressing percentage,LUB 5.5 mg·kg^−1 DM,62.7%
same,Lean maturity,LUB 5.5 mg·kg^−1 DM,167
same,Overall maturity,LUB 5.5 mg·kg^−1 DM,169
same,Skeletal maturity,LUB 5.5 mg·kg^−1 DM,170
same,Marbling score,LUB 5.5 mg·kg^−1 DM,560
same,Increased HCW,"LUB 22.0 mg·kg^−1 DM (third of the respective treatments), 91 d",16 kg animal-1
same,Adjusted fat thickness,LUB 22.0 mg·kg^−1 DM,1.19 cm
same,Calculated yield grade,LUB 22.0 mg·kg^−1 DM,2.25
same,HGW,LUB 22.0 mg·kg^−1 DM,365 kg
same,IM area,LUB 22.0 mg·kg^−1 DM,96.8 cm^2
same,KPH,LUB 22.0 mg·kg^−1 DM,1.61%
same,Dressing percentage,LUB 22.0 mg·kg^−1 DM,62.8%
same,Lean maturity,LUB 22.0 mg·kg^−1 DM,163
same,Overall maturity,LUB 22.0 mg·kg^−1 DM,168
same,Skeletal maturity,LUB 22.0 mg·kg^−1 DM,172
same,Marbling score,LUB 22.0 mg·kg^−1 DM,562
same,Carcass weights heavier than CON,"cattle fed LUB (1.38, 5.5, 22.0 mg·kg^−1 DM), 91 d",about 15 kg
same,Probability of grading high Choice vs CON,"cattle fed LUB, 91 d, P=0.004",lower
same,Probability of grading low Choice vs CON,"cattle fed LUB, 91 d, P=0.021",greater
